According to US7425568B2, “Compounds, which are potent inhibitors of Na+ /Ca2+ exchange mechanism and are useful in the treatment of arrhythmias” (Orion Corporation, priority 2001, dated 2008):

Test system: ouabain-induced arrhythmias in guinea-pig papillary muscles
Assay: Inhibition of ouabain-induced arrhythmias (aftercontractions) in isolated guinea-pig papillary muscles
Conditions: for maximum amplitude of aftercontractions #1: n=5, vehicle 143±54 mg
Method: The effects of the compounds of the invention were tested on ouabain-induced arrhythmias in guinea-pig papillary muscles.
Guinea-pig papillary muscles were mounted into horizontal muscle cuvette. A hook connected to force transducer was attached to another end of the muscle. Muscle preparations were electrically paced at 1 Hz with field stimulation via platinum electrodes. Modified Tyrode solution was used for superfusion of muscle preparations. The composition of the Tyrode solution was the following (mM): NaCl 135, MgCl2×6H2O 1, KCl 5, CaCl2×2H2O 2, NaHCO3 15, Na2HPO4×2H2O 1, and glucose 10. The Tyrode solution was gassed with carbogen (95% O2, 5% CO2) to set pH at 7.4. Experiments were carried out at 37° C. Acquisition and analysis of twitch tensions with Action Potential and Force Measurement System (ACFO v1.0, Fision Ltd, Finland).
Ouabain by blocking of sodium-potassium ATPase increase intracellular sodium which is changed for calcium via NCX. Increased intracellular calcium is leading to overload of sarcoplasmic reticulum (SR) and spontaneous calcium release from SR inducing delayed […] (DADs). Equivalence for DADs in force signal is aftercontractions (ACs) which are seen as spontaneous twitches after the pacing controlled twitch.
The compounds of the invention delayed appearance and decreased amplitude of aftercontractions.

Compound | appearance of aftercontractions (time to appearance) (30 μM, mean±SD, n=5, vehicle 25±8.9 min, p=0.013, paced at 1 Hz, 37° C) | maximum amplitude of aftercontractions #1 (30 μM, p=0.008) | maximum amplitude of aftercontractions #1 (10 μM, p=0.027)
CC(=O)Nc1ccc(Oc2ccc3c(c2)CCC(c2ccccc2)O3)nc1 (stereo not drawn) [Example 27] | 38 ± 7.5 min | 74 ± 16 mg | 
CS(=O)(=O)Nc1ccc(Oc2ccc3c(c2)CCC(c2cccc(F)c2)O3)nc1 (stereo not drawn) [Example 67, N-{6-[2-(3-Fluorophenyl)chroman-6-yloxy]pyridin-3-yl}methane Sulfonamide] |  |  | 88 ± 20 mg
